Experiments:
Format in all cases: biochemical
HIPK2 [1] = biological target: T1, HIPK2 (Homo sapiens, UniProt Q9H2X6); experiment: ADP-Glo kinase assay (positive control drug); details: read-out: IC50 ± SEM (μM) / HIPK2
HIPK3 = HIPK3 (Homo sapiens, UniProt Q9H422); experiment: kinase inhibition assay, percent inhibition at […]
HIPK2 [2] = biological target: T1, HIPK2; experiment: ADP-Glo kinase assay (MBP substrate); details: read-out: IC50 ± SEM (μM) / HIPK2

T1 sequence (Q9H2X6 whole entry): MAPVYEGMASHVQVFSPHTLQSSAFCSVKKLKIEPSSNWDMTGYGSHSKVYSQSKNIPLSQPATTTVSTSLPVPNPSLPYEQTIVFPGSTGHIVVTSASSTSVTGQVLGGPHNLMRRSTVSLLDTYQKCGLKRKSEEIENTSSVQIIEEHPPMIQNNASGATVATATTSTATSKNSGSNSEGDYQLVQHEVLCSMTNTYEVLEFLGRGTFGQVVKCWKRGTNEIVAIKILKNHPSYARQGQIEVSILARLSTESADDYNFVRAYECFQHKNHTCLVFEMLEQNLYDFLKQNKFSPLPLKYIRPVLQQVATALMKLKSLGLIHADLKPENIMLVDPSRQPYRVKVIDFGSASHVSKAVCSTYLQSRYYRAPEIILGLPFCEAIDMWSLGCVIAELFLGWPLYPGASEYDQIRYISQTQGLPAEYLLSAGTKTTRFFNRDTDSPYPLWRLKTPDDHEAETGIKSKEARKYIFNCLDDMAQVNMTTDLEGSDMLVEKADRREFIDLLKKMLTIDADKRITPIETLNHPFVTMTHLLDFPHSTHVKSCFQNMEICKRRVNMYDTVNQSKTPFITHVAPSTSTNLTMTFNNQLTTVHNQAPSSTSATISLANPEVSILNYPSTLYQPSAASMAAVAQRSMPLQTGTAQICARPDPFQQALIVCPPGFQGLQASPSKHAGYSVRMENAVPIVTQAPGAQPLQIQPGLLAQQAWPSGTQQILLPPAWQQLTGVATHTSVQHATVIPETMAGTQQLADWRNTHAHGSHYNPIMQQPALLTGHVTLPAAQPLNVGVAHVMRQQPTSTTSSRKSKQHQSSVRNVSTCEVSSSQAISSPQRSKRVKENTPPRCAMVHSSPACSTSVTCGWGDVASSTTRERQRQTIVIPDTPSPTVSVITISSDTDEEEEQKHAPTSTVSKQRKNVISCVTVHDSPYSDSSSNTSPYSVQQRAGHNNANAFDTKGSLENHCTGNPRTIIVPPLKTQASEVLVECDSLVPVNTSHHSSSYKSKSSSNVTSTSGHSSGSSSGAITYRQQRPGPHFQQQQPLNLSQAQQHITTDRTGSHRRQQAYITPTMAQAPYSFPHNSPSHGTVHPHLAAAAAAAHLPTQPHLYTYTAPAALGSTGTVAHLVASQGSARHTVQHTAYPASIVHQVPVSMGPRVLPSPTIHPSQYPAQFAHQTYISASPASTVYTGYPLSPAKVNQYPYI
Chain of HIPK3 (Q9H422 whole entry): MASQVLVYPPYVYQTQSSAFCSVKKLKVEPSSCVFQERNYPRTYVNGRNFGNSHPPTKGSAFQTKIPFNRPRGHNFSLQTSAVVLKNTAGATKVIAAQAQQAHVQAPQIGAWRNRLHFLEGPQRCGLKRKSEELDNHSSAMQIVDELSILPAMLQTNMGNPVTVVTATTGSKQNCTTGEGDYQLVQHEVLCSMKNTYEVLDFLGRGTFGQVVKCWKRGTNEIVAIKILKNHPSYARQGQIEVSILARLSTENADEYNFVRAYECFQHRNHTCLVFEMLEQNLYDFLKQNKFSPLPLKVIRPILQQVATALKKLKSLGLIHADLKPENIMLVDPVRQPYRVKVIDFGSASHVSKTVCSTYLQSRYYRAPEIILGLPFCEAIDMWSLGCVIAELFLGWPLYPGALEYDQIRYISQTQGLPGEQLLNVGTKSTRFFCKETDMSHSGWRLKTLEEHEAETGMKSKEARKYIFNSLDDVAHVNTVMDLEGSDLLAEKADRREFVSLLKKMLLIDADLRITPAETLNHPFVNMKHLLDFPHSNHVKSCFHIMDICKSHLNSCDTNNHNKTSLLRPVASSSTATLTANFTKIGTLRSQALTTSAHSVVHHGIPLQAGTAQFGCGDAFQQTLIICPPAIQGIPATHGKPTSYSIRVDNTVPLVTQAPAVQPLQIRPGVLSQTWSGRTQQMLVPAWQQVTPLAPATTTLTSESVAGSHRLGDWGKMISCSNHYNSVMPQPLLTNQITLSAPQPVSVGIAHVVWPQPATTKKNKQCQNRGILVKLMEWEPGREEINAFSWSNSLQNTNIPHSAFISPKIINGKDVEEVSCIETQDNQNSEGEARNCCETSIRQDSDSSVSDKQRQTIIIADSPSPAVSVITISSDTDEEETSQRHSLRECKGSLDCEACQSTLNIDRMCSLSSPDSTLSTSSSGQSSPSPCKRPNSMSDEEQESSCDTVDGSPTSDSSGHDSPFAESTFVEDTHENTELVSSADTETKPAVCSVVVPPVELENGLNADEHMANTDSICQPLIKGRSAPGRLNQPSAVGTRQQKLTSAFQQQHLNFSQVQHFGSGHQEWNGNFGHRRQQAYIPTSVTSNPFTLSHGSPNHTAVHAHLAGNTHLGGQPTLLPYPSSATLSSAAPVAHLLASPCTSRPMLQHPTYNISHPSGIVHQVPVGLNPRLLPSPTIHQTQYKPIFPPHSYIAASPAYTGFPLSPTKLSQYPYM

IC50 (HIPK2 [1]) [µM] | inhibition at 10 µM (HIPK3) [%] | Compound | IC50 (HIPK2 [2]) [µM]
0.45 ± 0.12 | > 90 | CCN1CCN(Cc2ccc(Nc3ncc(F)c(-c4cc(F)c5nc(C)n(C(C)C)c5c4)n3)nc2)CC1 [Abemaciclib] | –
– | – | CCCNc1ccc2ncc(-c3ccc4[nH]ncc4c3)n2n1 [T9521, 3-(1H-indazol-5-yl)-N-propylimidazo[1,2-b]pyridazin-6-amine] | 0.97 ± 0.04
– | – | O=C1Nc2ccc3ncsc3c2/C1=C/c1c[nH]cn1 [T16550] | 3.58 ± 0.06
